{
  "source": "patent US20230041138A1",
  "about": "“TREATMENT OF HIS HYPORESPONDERS” (NewAmsterdam Pharma B.V. (Dutch Registration No. 55971946), priority 2021, published 2023)",
  "origin": "cited, not measured here",
  "tested_on": "LDL-C",
  "settings": "rosuvastatin 20 mg; cited from earlier work",
  "data": [
    {"smiles": "CC(C)c1nc(N(C)S(C)(=O)=O)nc(-c2ccc(F)cc2)c1/C=C/[C@@H](O)C[C@@H](O)CC(=O)O", "note": "[rosuvastatin]", "values": [
      {"measurement": "median LDL-C lowering response", "result": 50, "unit": "%"},
      {"measurement": "share of patients with LDL-C reduction <50%", "result": 43, "unit": "%"}
    ]}
  ]
}
